Measured values: patent US20030181446A1, “Novel N-acylated heterocycles” (Recordati S.A., priority 2001, published 2003)

Legend:
[1] = system: bladder volume capacity (BVC) and micturition pressure (MP); assay: Effect on cystometric parameters in conscious rats after oral administration; format: in vivo, rat; settings: 3 mg/kg p.o., 1-5 h after treatment, versus vehicle
Experimental: Male Sprague-Dawley rats [Crl: CD° (SD) BR] of 300-400 g supplied by Charles River Italia were used. The animals were housed with free access to food and water and maintained on a forced 12-hour-light/12-hour-dark cycle at 22-24° C. of temperature, except during the experiment. To quantify urodynamic parameters in conscious rats, cystometrographic studies were performed according to the procedure previously reported (Guarneri et al., Pharmacol. Res. 24: 175, 1991).
Briefly, the rats were anaesthetised by intraperitoneal administration of 3 ml/kg of Equithensin solution (pentobarbital 30 mg/kg and chloral hydrate 125 mg/kg) and placed in a supine position. An approximately-10-mm-long midline incision was made in the shaved and cleaned abdominal wall. The urinary bladder was gently freed from adhering tissues, emptied and then cannulated via an incision in the bladder body, using a polyethylene cannula (0.58-mm internal diameter, 0.96-mm external diameter) which was permanently sutured with silk thread. The cannula was exteriorised through a subcutaneous tunnel in the retroscapular area, where it was connected to a plastic adapter in order to avoid the risk of removal by the animal. For drug testing, the rats were utilised one day after implantation.
On the day of the experiment, the rats were placed in modified Bollman cages, i.e. restraining cages that were large enough to permit the rats to adopt a normal crouched posture, but narrow enough to prevent turning around. […] The intraluminal-pressure signal during infusion of saline into the bladder was continuously recorded on a polygraph (Rectigraph-8K San-ei with BM614/2 amplifier from Biomedica Mangoni) and, from the cystometrogram, two urodynamic parameters were evaluated: bladder volume capacity (BVC) and micturition pressure (MP). […] Basal BVC and MP values were evaluated as mean of the values observed in the cystometrograms recorded in an initial period of 30-60 minutes. […] The bladder infusion restarted and changes in BVC and MP were evaluated from the mean values obtained in the cystometrograms observed during 1, 2, 3, 4 and 5 hours after treatment. […]
All data were expressed as mean±standard error. Time-course data were analysed by S.A.S./STAT software, version 6.12. The difference between vehicle and active-treatment effect was evaluated by: General Linear Model Procedure—Repeated Measures Analysis of Variance: Univariate test of Hypotheses for within Subject Effects—Analysis of Variance of Contrast Variables. […]

[2] = molecular target: T1, human 5HT1A-serotonergic receptor (Homo sapiens, UniProt P08908); assay: Radioligand binding to recombinant 5-HT1A receptors; settings: 1 nM [3H]8-OH-DPAT, membranes of HeLa cells transfected with human 5HT1A receptor; Ki from IC50 by Cheng & Prusoff; read-out: Binding affinity for 5HT1A receptors, Ki
T1 construct: expressed in transfected cells; cell membranes
T1 sequence (P08908 1-422): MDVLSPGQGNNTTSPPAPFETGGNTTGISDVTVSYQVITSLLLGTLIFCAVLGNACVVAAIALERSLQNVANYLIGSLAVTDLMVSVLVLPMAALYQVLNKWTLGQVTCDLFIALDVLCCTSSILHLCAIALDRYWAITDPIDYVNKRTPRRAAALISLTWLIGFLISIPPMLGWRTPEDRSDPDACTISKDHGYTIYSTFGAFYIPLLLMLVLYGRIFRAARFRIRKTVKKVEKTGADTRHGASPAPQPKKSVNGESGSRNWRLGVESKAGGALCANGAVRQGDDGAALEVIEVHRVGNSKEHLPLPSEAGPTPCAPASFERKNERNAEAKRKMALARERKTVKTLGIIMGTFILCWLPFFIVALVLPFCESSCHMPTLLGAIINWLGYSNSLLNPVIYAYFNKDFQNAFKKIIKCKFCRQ
Experimental: Genomic clone G-21 coding for the human 5HT1A-serotonergic receptor was stably transfected in a human cell line (HeLa). HeLa cells were grown as monolayers in Dulbecco's modified Eagle medium (DMEM), containing 10% foetal bovine serum, gentamicin ([…]) and 5% carbon dioxide, at 37° C. The cells were detached from the growth flask at 95% confluence by a cell scraper and were lysed in cold 5 mM Tris and 5 mM EDTA buffer (pH 7.4). The homogenates were centrifuged at 40000×g×20 minutes and the pellets were resuspended in a small volume of cold 5 mM Tris and 5 mM EDTA buffer (pH 7.4) and immediately frozen and stored at −70° C. until use. On the day of experiment, the cell membranes were resuspended in incubation buffer: 50 mM Tris HCl (pH 7.4), 2.5 mM MgCl2, […] (Fargin et al., Nature 335, 358-360, 1988). […] Non-specific binding was determined in the presence of 10 μM 5-HT. […]
The affinity of the tested compounds was evaluated as inhibition of specific binding of the radioligand to 5-HT1A receptors (IC50) by using the non-linear curve-fitting program Allfit (De Lean et al., Am. J. Physiol. 235, E97-E102 (1978). The IC50 value was converted to an affinity constant (Ki) by the equation of Cheng & Prusoff (Cheng Y. C., Prusoff W. H., Biochem. Pharmacol. 22, 3099-3108 (1973)).

[3] = system: rhythmic bladder-voiding contractions; assay: Effects on rhythmic bladder-voiding contractions induced by bladder filling in anaesthetised rats; format: in vivo, rat; settings: intravenous administration
Experimental: Female Sprague-Dawley rats weighing 225-275 g (Crl: CDo Br, Charles River Italia) were used. The animals were housed with free access to food and water and maintained on a forced 12-hour alternating light-dark cycle at 22-24° C. for at least one week, except during the experiment. The activity on rhythmic bladder voiding contractions was evaluated according to the method of Dray (Dray J., Pharmacol. Methods, 13:157, 1985), with some modifications as in Guarneri (Guarneri, Pharmacol. Res. 27:173, 1993). Briefly, the rats were anaesthetised by subcutaneous injection of 1.25 g/kg (5 ml/kg) urethane, after which the urinary bladder was catheterised via the urethra using PE 50 polyethylene tubing filled with physiological saline. […]
From the cystometrogram, the number of contractions recorded 15 minutes before (basal values) and after treatment, as well as the mean amplitude of these contractions (mean height of the peaks in mmHg), was evaluated.
Since most compounds produced an effect that was relatively rapid in onset and led to a complete cessation of bladder contractions, bioactivity was conveniently estimated by measuring the duration of bladder quiescence (i.e. the length of the time during which no contractions occurred). The number of tested animals showing a reduction in the number of contractions higher than 30% of that observed in the basal period was recorded too. […]

Compound	bladder volume capacity (BVC) change (in words) [1]	micturition pressure (MP) change (in words) [1]	Ki [2] [nM]	cessation of bladder contractions (in words) [3]	effect on amplitude of the contractions (in words) [3]
O=C(C1CCCCC1)N1c2ccccc2CCC1CN1CCN(c2cccc3[nH]ccc23)CC1 (racemic) [Example 1, 1-(1-Cyclohexanecarbonyl-1,2,3,4-tetrahydroquinoline-2-ylmethyl)-4-(4-indolyl)piperazine]	effective in increasing the bladder volume capacity	without significant effects on micturition pressure			
CC(C)Oc1cc(Cl)ccc1N1CCN(CC2CCc3ccccc3N2C(=O)C2CCCCC2)CC1 (centres unmarked) [Example 60A]			10.1		
1-(2-Ethylbutanoyl-1,2,3,4-tetrahydroquinoline-2-ylmethyl)-4-(4-indolyl)-piperazine [Example 24A]			12.9		
CCN(CC)CC#CCOC(=O)C(O)(c1ccccc1)C1CCCCC1 (centres unmarked) [Oxybutynin, oxybutynin]	slight, not-significant increase of BVC	greatly reduced the micturition pressure values		does not cause cessation of bladder contractions	only decreased the amplitude of the contractions in a dose-related manner
